{"source": "BindingDB's records for doi:10.1021/acs.jmedchem.5b01031", "about": "(Wayne State University, 2015)", "key": {"[1]": {"molecular_target": "T1, D(2) dopamine receptor (Homo sapiens, UniProt P14416)", "T1 sequence (P14416 whole entry)": "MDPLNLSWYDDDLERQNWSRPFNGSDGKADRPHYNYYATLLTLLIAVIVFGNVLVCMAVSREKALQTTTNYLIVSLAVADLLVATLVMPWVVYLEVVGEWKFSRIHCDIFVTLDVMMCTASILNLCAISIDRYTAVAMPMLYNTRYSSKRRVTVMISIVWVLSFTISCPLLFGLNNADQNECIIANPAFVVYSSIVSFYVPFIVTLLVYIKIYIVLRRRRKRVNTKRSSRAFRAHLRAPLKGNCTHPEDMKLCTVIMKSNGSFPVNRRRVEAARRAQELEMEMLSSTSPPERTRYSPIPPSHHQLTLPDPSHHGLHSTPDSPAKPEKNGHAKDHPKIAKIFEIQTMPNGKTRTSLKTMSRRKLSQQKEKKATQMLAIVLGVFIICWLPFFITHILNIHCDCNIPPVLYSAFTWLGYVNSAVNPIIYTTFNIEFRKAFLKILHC", "test": "Antagonist activity against human D2 receptor expressed in CHO cells assessed as dopamine EC50 at 1 uM by [35S]GTPgammaS binding assay (Rvb = 225 +/- 45 nM)"}, "[2]": {"molecular_target": "T1, D(2) dopamine receptor", "test": "Antagonist activity against human D2 receptor expressed in CHO cells assessed as dopamine EC50 at 200 nM by [35S]GTPgammaS binding assay (Rvb = 225 +/- 45 nM)"}}}
{"smiles": "CCCN1CCC[C@@H](c2cccc(O)c2)C1", "note": "[Preclamol]", "values": [{"measurement": "EC50", "setting": "[1]", "value": 844, "unit": "nM"}, {"measurement": "EC50", "setting": "[2]", "value": 376, "unit": "nM"}]}
